Results taken from PMC4556275 (Drug metabolism and pharmacokinetics, 2010).

Tests used:
[1] = Metabolic stability in pooled human liver microsomes; assay type: in vitro ADME; settings: for CLint (microsomal): 1 μM substrate, 0.5 mg/mL HLM protein, 37°C; for ER (extraction ratio) / Hepatic CL: well-stirred model, Q 1400 mL/min, fu assumed 1
[2] = Metabolite profiling in HLM incubations by MRM-IDA-EPI; assay type: in vitro ADME, human; settings: HLM incubation, MRM-IDA-EPI method

Row | Compound | CLint (microsomal) [1] | ER (extraction ratio) [1] | Hepatic CL [1] | number of metabolites formed and detected [2]
1 | O=C(N1CCCCC1)N1CC(=O)N2CCc3ccccc3C2C1 (stereo not drawn) [PZ07, 2-piperidinylcarbonyl-1,2,3,6,7,11b-hexa-hydro-4H-pyrazino(2,1-α)isoquinoline-4-one] | 22.0 μl/min/mg microsomal protein | 0.43 | 607.9 mL/min | –
2 | O=C(N1CCC(F)(F)CC1)N1CC(=O)N2CCc3ccccc3C2C1 (stereo not drawn) [PZ10, 2-(4,4-difluoropiperidinyl)carbonyl-1,2,3,6,7,11b-hexa-hydro-4H-pyrazino(2,1-α)isoquinoline-4-one] | 16.2 μl/min/mg microsomal protein | 0.36 | 505.5 mL/min | Eight
3 | O=C(C1CCC(F)(F)CC1)N1CC(=O)N2CCc3ccccc3C2C1 (stereo not drawn) [PZ02, 2-(4,4-difluorocyclohexyl)carbonyl-1,2,3,6,7,11b-hexahydro-4H-pyrazino(2,1-α)isoquinoline-4-one] | 22.8 μl/min/mg microsomal protein | 0.44 | 620.2 mL/min | Nine
